Data published in PubChem BioAssay AID504501 (Sanford-Burnham Center for Chemical Genomics, 2011).

Target: Sentrin-specific protease 8 (Homo sapiens) (UniProt Q96LD8)
Experiment: inhibition of human SENP8 cleavage activity – biochemical, luminescence, SAR follow-up (AID 504501)
Conditions: recombinant SENP8 enzyme, luminescent protease assay

Sentrin-specific protease 8 (Homo sapiens), sequence (Q96LD8 whole entry, looked up): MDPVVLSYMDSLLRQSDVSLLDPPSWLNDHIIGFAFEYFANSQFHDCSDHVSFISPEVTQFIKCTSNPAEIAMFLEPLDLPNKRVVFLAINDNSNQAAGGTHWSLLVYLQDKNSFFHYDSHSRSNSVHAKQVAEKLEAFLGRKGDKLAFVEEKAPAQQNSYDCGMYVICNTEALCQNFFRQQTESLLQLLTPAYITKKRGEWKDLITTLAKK

Row | SMILES | IC50
1 | Fc1ccc(COc2ccc(C(=S)N3CCCC3)cc2)cc1 | 2.5 µM
2 | Cc1cccc(C(=O)Nc2scc(-c3ccc(Br)cc3)c2C(=O)O)c1 | 3.75 µM
